Measured values reported in patent US20250282749A1 (Tango Therapeutics, Inc., priority 2022, published 2025).

Experiments:
Assay type in all cases: cell-based
[1] = system: PRMT5 (SDMA) in HAP1 MTAP-intact cell line; assay: SDMA in-cell western assay, HAP1 MTAP-intact cell line; conditions: Homo sapiens, HAP1 MTAP-intact cell line (endogenous MTAP), read-out: Hap 1 MTAP intact IC50
Description: (§1) HAP1 MTAP-intact is a cell line in which endogenous levels of MTAP are expressed, and HAP1 MTAP-deleted is an MTAP-null cell line.

[2] = system: PRMT5 (SDMA) in HAP1 MTAP-deleted cell line; assay: SDMA in-cell western assay, HAP1 MTAP-deleted cell line; conditions: for IC50 / IC90: Homo sapiens, SDMA in-cell western, HAP1 MTAP-deleted (MTAP-null) cell line; for Hap1 MTAP intact/deleted ratio: ratio of SDMA in-cell western IC50 in HAP1 MTAP-intact to IC50 in HAP1 MTAP-deleted cell line
Description: as §1

[3] = system: HAP1 MTAP-deleted cell line; assay: viability assay for the MTAP-deleted cell line; conditions: Homo sapiens

Compound	IC50 [1] [nM]	IC50 [2] [nM]	IC90 [2] [nM]	Hap1 MTAP intact/deleted ratio [2]	IC50 [3] [nM]
CCc1cc(NC(=O)C(=O)N2C[C@@H](C)N(C(=O)C(C)(C)C)C[C@@H]2c2cccc(N3CCN(C)CC3)c2)cnc1N [Compound 110, N-(6-amino-5-ethylpyridin-3-yl)-2-((2S,5R)-5-methyl-2-(3-(4-methylpiperazin-1-yl)phenyl)-4-pivaloylpiperazin-1-yl)-2-oxoacetamide]	< 5	< 5	< 75	C (an IC50 ratio of less than 15 fold)	< 100
Cc1cc(NC(=O)C(=O)N2C[C@@H](C)N(C(=O)C3(C(F)(F)F)CC3)C[C@@H]2c2cccs2)cnc1N [Compound 111, N-(6-amino-5-methyl-3-pyridyl)-2-[(2R,5R)-5-methyl-2-(2-thienyl)-4-[1-(trifluoromethyl)cyclopropanecarbonyl]piperazin-1-yl]-2-oxo-acetamide]	5 to 50	< 5	75 to 125	C (an IC50 ratio of less than 15 fold)	< 100
C[C@@H]1CN(C(=O)C(=O)Nc2cnc(N)c(C3CC3)c2)[C@@H](c2ccc(F)cc2)CN1C(=O)C1(C(F)(F)F)CC1 [Compound 112, N-(6-amino-5-cyclopropylpyridin-3-yl)-2-((2S,5R)-2-(4-fluorophenyl)-5-methyl-4-(1-(trifluoromethyl)cyclopropanecarbonyl)piperazin-1-yl)-2-oxoacetamide]	> 50	5 to 50	75 to 125	C (an IC50 ratio of less than 15 fold)	< 100
CC(C)C(=O)N1C[C@H](c2cccc(N3CCN(C)CC3)c2)N(C(=O)C(=O)Nc2cncc3cn[nH]c23)C[C@H]1C [Compound 113, 2-((2S,5R)-4-isobutyryl-5-methyl-2-(3-(4-methylpiperazin-1-yl)phenyl)piperazin-1-yl)-2-oxo-N-(1H-pyrazolo[4,3-c]pyridin-7-yl)acetamide]	> 50	5 to 50	> 125	C (an IC50 ratio of less than 15 fold)	< 100
CC(C)C(=O)N1C[C@@H](c2ccc(F)cc2)N(C(=O)C(=O)Nc2cnc(N)c(C3CC3)c2)C[C@@H]1C [Compound 115, N-(6-amino-5-cyclopropyl-3-pyridyl)-2-[(2R,5S)-2-(4-fluorophenyl)-5-methyl-4-(2-methylpropanoyl)piperazin-1-yl]-2-oxo-acetamide]	> 50	> 50	> 125	C (an IC50 ratio of less than 15 fold)	> 1000
CCc1cc(NC(=O)C(=O)N2C[C@@H](C)N(C(=O)C3(C(F)(F)F)CC3)C[C@@H]2c2ccc(F)cc2)cnc1N [Compound 116, N-(6-amino-5-ethylpyridin-3-yl)-2-((2S,5R)-2-(4-fluorophenyl)-5-methyl-4-(1-(trifluoromethyl)cyclopropanecarbonyl)piperazin-1-yl)-2-oxoacetamide]	> 50	< 5	< 75	A (an IC50 ratio greater than or equal to 30 fold)	< 100
Cc1cc(NC(=O)C(=O)N2C[C@@H](C)N(C(=O)C(C)C)C[C@@H]2c2cccc(N3CCN(C)CC3)c2)cnc1N [Compound 117, N-(6-amino-5-methylpyridin-3-yl)-2-((2S,5R)-4-isobutyryl-5-methyl-2-(3-(4-methylpiperazin-1-yl)phenyl)piperazin-1-yl)-2-oxoacetamide]	5 to 50	5 to 50	< 75	C (an IC50 ratio of less than 15 fold)	< 100
Cc1cc(NC(=O)C(=O)N2C[C@@H](C)N(C(=O)C3(C(F)(F)F)CC3)C[C@@H]2c2ccc(Cl)c(Cl)c2)cnc1N [Compound 119, N-(6-amino-5-methylpyridin-3-yl)-2-((2S,5R)-2-(3,4-dichlorophenyl)-5-methyl-4-(1-(trifluoromethyl)cyclopropanecarbonyl)piperazin-1-yl)-2-oxoacetamide]	> 50	5 to 50	75 to 125	C (an IC50 ratio of less than 15 fold)	< 100
Cc1cc(NC(=O)C(=O)N2C[C@@H](C)N(C(=O)OC3(C)CC3)C[C@@H]2c2ccc(F)cc2)cnc1N [Compound 120]	> 50	5 to 50	75 to 125	B (an IC50 ratio greater than or equal to 15 fold but lower than 30 fold)	100 to 1000
CCc1cc(NC(=O)C(=O)N2C[C@@H](C)N(CC(C)(C)C)C[C@@H]2c2ccccc2)cnc1N [Compound 121, N-(6-amino-5-ethylpyridin-3-yl)-2-((2S,5R)-5-methyl-4neopentyl-2-phenylpiperazin-1-yl)-2-oxoacetamide]	> 50	5 to 50	75 to 125	B (an IC50 ratio greater than or equal to 15 fold but lower than 30 fold)	< 100
CC(C)CN1C[C@H](c2ccccc2)N(C(=O)C(=O)Nc2cnc(N)c(C3CC3)c2)C[C@H]1C [Compound 122, N-(6-amino-5-cyclopropylpyridin-3-yl)-2-((2S,5R)-4-isobutyl-5-methyl-2-phenylpiperazin-1-yl)-2-oxoacetamide]	> 50	5 to 50	> 125	B (an IC50 ratio greater than or equal to 15 fold but lower than 30 fold)	< 100
C[C@@H]1CN(C(=O)C(=O)Nc2cncc3[nH]ncc23)[C@@H](c2ccc(F)cc2)CN1C(=O)C(C)(C)C [Compound 125, 2-[(2R,5R)-4-(2,2-dimethylpropanoyl)-2-(4-fluorophenyl)-5-methyl-piperazin-1-yl]-2-oxo-N-(^1H-pyrazolo[3,4-c]pyridin-4-yl)acetamide]	> 50	5 to 50	< 75	A (an IC50 ratio greater than or equal to 30 fold)	100 to 1000
CC(C)C(=O)N1CCN(C(=O)C(=O)Nc2cnc(N)c3cn[nH]c23)[C@@H](c2ccccc2)C1 [Compound 126, (S)—N-(4-amino-1H-pyrazolo[4,3-c]pyridin-7-yl)-2-(4-isobutyryl-2-phenylpiperazin-1-yl)-2-oxoacetamide]	> 50	< 5	< 75	A (an IC50 ratio greater than or equal to 30 fold)	100 to 1000
C[C@@H]1CN(C(=O)C(=O)Nc2cnc(N)c(C3COC3)c2)[C@@H](c2ccccc2)CN1C(=O)C(C)(C)C [Compound 127, N-(6-amino-5-(oxetan-3-yl)pyridin-3-yl)-2-((2S,5R)-5-methyl-2-phenyl-4-pivaloylpiperazin-1-yl)-2-oxoacetamide]	5 to 50	5 to 50	< 75	C (an IC50 ratio of less than 15 fold)	< 100
Cc1ccc([C@H]2CN(C(=O)C3(C(F)(F)F)CC3)[C@H](C)CN2C(=O)C(=O)Nc2cnc(N)c(C)c2)cc1 [Compound 128, N-(6-amino-5-methylpyridin-3-yl)-2-((2S,5R)-5-methyl-2-(p-tolyl)-4-(1-(trifluoromethyl)cyclopropanecarbonyl)piperazin-1-yl)-2-oxoacetamide]	> 50	5 to 50	75 to 125	B (an IC50 ratio greater than or equal to 15 fold but lower than 30 fold)	< 100
C[C@@H]1CN(C(=O)C(=O)Nc2cncc3cn[nH]c23)[C@@H](c2ccc(F)cc2)CN1C(=O)OC(C)(C)C [Compound 129, (2R,5S)-tert-butyl 4-(2-((1H-pyrazolo[4,3-c]pyridin-7-yl)amino)-2-oxoacetyl)-5-(4-fluorophenyl)-2-methylpiperazine-1-carboxylate]	> 50	5 to 50	> 125	A (an IC50 ratio greater than or equal to 30 fold)	100 to 1000
CCc1cc(NC(=O)C(=O)N2C[C@@H](C)N(C(=O)C(C)(C)C)C[C@@H]2c2ccc(N3CCN(C)CC3)cc2)cnc1N [Compound 130, N-(6-amino-5-ethylpyridin-3-yl)-2-((2S,5R)-5-methyl-2-(4-(4-methylpiperazin-1-yl)phenyl)-4-pivaloylpiperazin-1-yl)-2-oxoacetamide]	5 to 50	< 5	< 75	C (an IC50 ratio of less than 15 fold)	< 100
Cc1cc(NC(=O)C(=O)N2C[C@@H](C)N(C(=O)C3(C(F)(F)F)CC3)C[C@@H]2c2ccc(Cl)cc2)cnc1N [Compound 131, N-(6-amino-5-methylpyridin-3-yl)-2-((5R)-2-(4-chlorophenyl)-5-methyl-4-(1-(trifluoromethyl)cyclopropanecarbonyl)piperazin-1-yl)-2-oxoacetamide]	> 50	< 5	75 to 125	C (an IC50 ratio of less than 15 fold)	100 to 1000
CCc1cc(NC(=O)C(=O)N2C[C@@H](C)N(C(=O)C3(C(F)(F)F)CC3)C[C@@H]2c2ccc(N3CCN(C)CC3)cc2)cnc1N [Compound 132, N-(6-amino-5-ethylpyridin-3-yl)-2-((2S,5R)-5-methyl-2-(4-(4-methylpiperazin-1-yl)phenyl)-4-(1-(trifluoromethyl)cyclopropanecarbonyl)piperazin-1-yl)-2-oxoacetamide]	5 to 50	< 5	< 75	C (an IC50 ratio of less than 15 fold)	< 100
